In general, IC50 refers to the midpoint of a concentration-inhibition curve. Low values mean greater potency, high ones weaker potency.

The structures appear in SMILES notation.

Results on three molecules are retold here after PMC11768184, “Non-Steroidal Anti-Inflammatory Drugs Are Inhibitors of the Intestinal Proton-Coupled Amino Acid Transporter (PAT1): Ibuprofen and Diclofenac Are Non-Translocated Inhibitors” (Pharmaceutics, 2025).

Common to all, as to type: cell-based
Assay [1] has as its target T1, proton-coupled amino acid transporter (hPAT1) (Homo sapiens, UniProt Q7Z2H8).
T1 construct: gene SLC36A1
The experiment in a line: concentration-dependent inhibition of [3H]-proline uptake in Caco-2 cells, pH […].

Assay [2] concerns the target T1, proton-coupled amino acid transporter (hPAT1). The experiment in a line: TEVC in hPAT1-expressing Xenopus oocytes; [3H]-proline uptake inhibition and kinetics in Caco-2 cells, pH […].
The target is the same in assay [3]. The experiment in a line: TEVC in hPAT1-expressing Xenopus oocytes; [3H]-proline uptake inhibition in Caco-2 cells, pH […].

T1 sequence (Q7Z2H8 whole entry): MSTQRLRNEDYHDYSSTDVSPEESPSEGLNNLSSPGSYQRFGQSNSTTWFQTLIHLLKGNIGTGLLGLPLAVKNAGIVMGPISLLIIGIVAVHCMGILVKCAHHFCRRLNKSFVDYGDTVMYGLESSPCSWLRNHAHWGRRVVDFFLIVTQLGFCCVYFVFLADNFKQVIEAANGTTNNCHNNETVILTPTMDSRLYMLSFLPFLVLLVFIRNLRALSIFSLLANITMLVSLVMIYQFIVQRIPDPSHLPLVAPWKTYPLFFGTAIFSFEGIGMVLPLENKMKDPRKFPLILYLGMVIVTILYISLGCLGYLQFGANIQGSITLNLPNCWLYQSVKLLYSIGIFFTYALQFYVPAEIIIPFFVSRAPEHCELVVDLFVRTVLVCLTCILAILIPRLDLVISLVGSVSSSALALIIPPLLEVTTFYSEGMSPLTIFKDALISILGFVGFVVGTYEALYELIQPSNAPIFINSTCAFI

Regarding `CC(C(=O)O)c1ccc(-c2ccccc2)c(F)c1` (racemic) [flurbiprofen], half-maximal inhibition in assay [1] (IC50) was put at 280 µM. With `CC(C)Cc1ccc(C(C)C(=O)O)cc1` (racemic) [ibuprofen], the half-inhibitory concentration (IC50) in assay [2] came to 954 µM. On to `O=C(O)Cc1ccccc1Nc1c(Cl)cccc1Cl` [diclofenac], for which, in assay [3], the IC50 was determined as 272 µM.
